The record followed here is paper doi:10.1101/2024.10.13.618094 (bioRxiv, 2024).

Series [1] deals with purified wild-type RHBDL4. Put plainly: TAMRA-FP active-site probe competition on purified RHBDL4. It counts as binding, human. The following applies: purified RHBDL4, SDS-PAGE, Cy3 fluorescence; compared with inactive RHBDL4-S144A control.
Description: Inhibition of recombinant purified RHBDL4 proteolytic activity by N-substituted peptidyl α-ketoamides. (A) Proteolytic rates of the fluorescent substrate IQ6 by RHBDL4 in the presence of increasing concentrations of the general protease inhibitors, Dicyclocoumarin (DCI), tosyl-phenylalanine-chloromethyl ketone (TPCK) and 4-(2-aminoethyl) benzenesulfonyl fluoride (AEBSF). […] (D) Representative inhibition curve derived from measuring rates of RHBDL4 proteolysis of the fluorescent substrate IQ6 with increasing concentrations of compound 1a. (E) Same as (D), except inhibition curve was derived from using increasing concentrations of compound 1b. […] Reactions were quenched with 1×Laemmli buffer and loaded on 12% SDS-PAGE gel. Post-transfer membranes were visualized using a fluorescence Cy3 filter and by western blotting using an α-RHBDL4 antibody. For (A), (D), and (E), all inhibitors were pre-incubated with RHBDL4 for 1hr and allowed to react with the IQ6 substrate for 2 h. Assays were performed in triplicate, and data points represent the average ± standard deviation.
In vitro inhibition of RHBDL4 activity with TMED7-derived peptidyl α-ketoamides. […] (B) Representative inhibition curve derived from measuring rates of RHBDL4 proteolysis of the fluorescent substrate IQ6 with increasing concentrations of compound 3. (C) Same as (B), except inhibition curve was derived from using increasing concentrations of compound 4. […] Reactions were quenched with 1×Laemmli buffer and loaded on 12% SDS-PAGE gel. Post-transfer membranes were visualized using a fluorescence Cy3 filter and by western blotting using an α-RHBDL4 antibody. […] For (B) and (C), all inhibitors were pre-incubated with RHBDL4 for 1hr and allowed to react with the IQ6 substrate for 2 h. All assays were performed in triplicate, and data points represent the average ± standard deviation.
Series [2] relates to RHBDL4-GFP in ER-enriched microsomes from HEK293T cells. In words: TAMRA-FP competition label assay in ER-enriched microsomes. It counts as binding, human. The following applies: 100 μM compound, preincubated 1 h at 37°C; 500 nM TAMRA-FP for 2 h at 37°C; immunoprecipitation, Cy3 fluorescence. Here is the method:
We aimed to investigate our RHBDL4 inhibitors in a more physiological context. […] To achieve this, we prepared ER-enriched microsomes from HEK293T cells transfected with RHBDL4-GFP, then pre-incubated microsomes with 100 μM of each compound, before TAMRA-FP was added to the microsomal fractions. RHBDL4-GFP was immunoprecipitated and visualized for TAMRA-FP fluorescence signal and western blotting. […] We surmise that the peptidyl α-ketoamides may have low membrane penetrability, making them weak inhibitors in microsome and cell-based assays. Further refinement is needed to design peptidyl α-ketoamides that effectively penetrate lipids and inhibit RHBDL4 activity in its native context.
Figure 6. RHBDL4 inhibition studies in ER-enriched microsomes ER-enriched microsomes were preincubated with 100 μM of compounds or DMSO vehicle control followed by addition of 500 nM of TAMRA-FP serine hydrolase probe. […] TAMRA-FP labeling was analyzed via Cy3 filter followed by western blotting using α-GFP antibody.
ER-enriched microsomes were obtained by hypotonic swelling and centrifugation from Hek293T cells 24 h after transfection. […] TAMRA-FP-labelling was analyzed in the wet gel with a green light source (535 nm) and a Cy3 filter by detecting fluorescence emission using ImageQuant 800 Fluor CCD imager (Cytiva) followed by western blotting using a α-GFP antibody (Roche).

Another series deals with T1, recombinant human RHBDL4 (Homo sapiens, UniProt Q8TEB9).
T1 construct: The entire RHBDL4 and RHBDL4-S144A cDNAs were subcloned into the pcDNA3.1 vector; 6xHis (C, cleaved yes); made in house; host or cells: Freestyle 293-F cells (transient transfection, pcDNA3.1-HisA)
T1 sequence (Q8TEB9 1-315): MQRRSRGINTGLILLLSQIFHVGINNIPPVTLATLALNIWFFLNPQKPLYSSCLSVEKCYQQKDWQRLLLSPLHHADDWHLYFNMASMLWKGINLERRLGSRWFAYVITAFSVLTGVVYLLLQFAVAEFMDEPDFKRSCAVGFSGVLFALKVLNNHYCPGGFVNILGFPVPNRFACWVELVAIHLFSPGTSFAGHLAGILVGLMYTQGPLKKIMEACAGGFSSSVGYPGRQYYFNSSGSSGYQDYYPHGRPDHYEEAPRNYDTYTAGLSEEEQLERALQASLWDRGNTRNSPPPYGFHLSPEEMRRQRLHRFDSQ
In words: FRET-based cleavage assay with fluorogenic substrates (Michaelis–Menten kinetics). The series is classed as biochemical. The following applies: pH 8, 37°C, 0.1% DDM, Michaelis–Menten fit, triplicate, average ± SD. The procedure: We employed a FRET-based assay to determine the activity of RHBDL4. The RHBDL4 proteolytic activity was tested against a suite of fluorescent, internally quenched (IQ) substrates that have been previously used to test the activity of rhomboid protease PARL (Fig. S2A)([Lysyk et al. 2021]). These substrates consist of 7–10-mer peptide sequences flanked by the fluorescent donor group 7-methoxycourmarin (mc) on the N terminus and quencher acceptor group dinitrophenol (dnp) on the C terminus (Fig. 2A) ([Arutyunova et al. 2018]). In general, the donor and acceptor are in proximity within the fluorogenic peptides and show low fluorescence due to internal quenching. Hydrolysis of the peptide bond between the donor and the acceptor leads to physical separation of the FRET pairs and increase in fluorescence, which would be proportional to RHBDL4 protease activity (Fig. 2A).
The reaction setup in our FRET assay enabled the direct determination of Michaelis–Menten kinetic parameters Km and kcat for the cleavage of IQ6, IQ41, and IQ46 by RHBDL4. Our fluorescence reading data were converted to μM/h using the standard calibration curve for all three IQ substrates, and the correction factor for the inner filter effect was applied. We confirmed that purified RHBDL4 followed Michaelis–Menten kinetics with KmIQ6=10.73±2μM , KmIQ41=5.63±2μM , and KmIQ46=7.19±1μM and kcatIQ6=7.33±0.6h^−1 , kcatIQ41=2.41±0.6h^−1 , and kcatIQ46=3.62±0.08h^−1 (Fig. 2B and S2B).
The enzymatic assay was performed as previously described (Arutyunova et al., 2014, [Arutyunova et al., 2018]). […] The FRET-based cleavage assay was conducted in a fluorescence multi-well plate reader (SynergyMx, BioTek, VT, USA). Upon excitation at 320 nm, the emission intensity at 400 nm was recorded for 2 h at minimal intervals under shaking conditions and plotted using the GraphPad PRISM software. The initial velocities were defined as the slopes of the curve of the generated product as a function of time. The plots of the generated product against the corresponding substrate concentration were fitted with the Michaelis–Menten equation. Catalytic parameters were extrapolated using GraphPad PRISM. […] The samples were desalted using C18 tips (Rainin, Columbus, OH, USA), eluted in 80% acetonitrile, and dried down in a vacuum centrifuge prior to mass spectrometry analysis.
All the calculations for Km, Vmax, and Kcat for RHBDL4 and its mutants were performed using GraphPad PRISM.

Series [3] relates to RHBDL4. In words: 1.5 μM of wild-type RHBDL4 in activity buffer containing 20 mM citrate phosphate pH 8.0, 150 mM NaCl, 20% (v/v) glycerol, and 0.1% (w/v) DDM. The following applies: human, 37°C, up to 2 h.
The subject of series [4] is RHBDL4. Put plainly: 1.5 μM of wild-type RHBDL4 (purified recombinant). The conditions noted are these: human, room temperature, up to 4 h.
Series [5] has as its target T2, rhomboid protease RHBDL4, wild type (recombinant, purified) (human) (UniProt Q8TEB9).
T2 sequence: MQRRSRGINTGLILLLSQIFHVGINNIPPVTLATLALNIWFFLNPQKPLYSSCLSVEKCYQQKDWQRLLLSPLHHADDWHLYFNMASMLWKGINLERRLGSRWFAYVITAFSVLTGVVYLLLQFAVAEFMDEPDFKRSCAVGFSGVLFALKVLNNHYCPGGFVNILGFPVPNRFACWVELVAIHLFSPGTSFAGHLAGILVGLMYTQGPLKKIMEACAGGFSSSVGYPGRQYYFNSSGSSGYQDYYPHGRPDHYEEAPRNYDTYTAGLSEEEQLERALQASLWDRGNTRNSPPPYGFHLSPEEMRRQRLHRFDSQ

The target in series [6] is T3, rhomboid protease RHBDL4, wild type (recombinant, purified) (human, UniProt Q8TEB9 1-315).
T3 sequence (looked up): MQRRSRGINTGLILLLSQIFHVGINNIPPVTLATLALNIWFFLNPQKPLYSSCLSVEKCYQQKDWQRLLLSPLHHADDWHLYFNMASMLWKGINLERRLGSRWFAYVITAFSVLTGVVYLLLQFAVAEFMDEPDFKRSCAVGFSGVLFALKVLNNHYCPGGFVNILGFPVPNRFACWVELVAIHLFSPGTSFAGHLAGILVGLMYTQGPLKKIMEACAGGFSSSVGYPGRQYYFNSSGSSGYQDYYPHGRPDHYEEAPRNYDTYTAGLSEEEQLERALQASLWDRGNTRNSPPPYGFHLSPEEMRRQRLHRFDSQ
Put plainly: cell-based or functional assay.

“Also recorded” adds a separate entry of the source. *1 amine or outer side, *2 acyl side, *3 side chain or, on linkers, in order; H or OH if unused. Where a SMILES comes first, the peptide text is derived from it. [ ]: non-standard residue; d: D form. The star is where a group is joined. Pheol(OBn) = c1ccc(COC[C@H](Cc2ccccc2)N*)cc1; Dnp = O=[N+]([O-])c1ccc(*)c([N+](=O)[O-])c1; NH(4-phenylbutyl) = c1ccc(CCCCN*)cc1; Mca = COc1ccc2c(CC(=O)*)cc(=O)oc2c1; X1 = C[C@H](N[*:1])C(=O)C(=O)[*:2]

`CC(=O)N[C@H](C(=O)N[C@@H](CCCNC(=N)N)C(=O)NC(Cc1c[nH]cn1)C(=O)N[C@@H](C)C(=O)C(=O)N[C@H](COCc1ccccc1)Cc1ccccc1)C(C)C` (some centres unmarked) [Compound 1a]: the “Competition with TAMRA-FP probe for the RHBDL4 catalytic site (fluorescent signal)” value (from here on “Competition with TAMRA-FP probe”) in series [1] is recorded as “significant reduction of fluorescent signal”.

For `CSCC[C@H](NC(=O)[C@H](CCC(N)=O)NC(C)=O)C(=O)N[C@@H](CCC(=O)O)C(=O)N[C@@H](CO)C(=O)N[C@@H](C)C(=O)C(=O)NCCCCc1ccccc1` [Compound 3] (Ac-QMES[X1]-{NH(4-phenylbutyl)}), the “Effect on TAMRA-FP labeling of RHBDL4-GFP in microsomes” value in series [2] is “reduced”. Further, the “Competition with TAMRA-FP probe” value in series [1] is given as “reduction in overall fluorescent signal”.

For the molecule `CSCC[C@H](NC(=O)[C@H](CCC(N)=O)NC(C)=O)C(=O)N[C@@H](CCC(=O)O)C(=O)N[C@@H](CO)C(=O)N[C@@H](C)C(=O)C(=O)N[C@H](COCc1ccccc1)Cc1ccccc1` [Compound 4] (Ac-QMES[X1]-{Pheol(OBn)}), the “Effect on TAMRA-FP labeling of RHBDL4-GFP in microsomes” value in series [2] is listed as “reduced”. The “Competition with TAMRA-FP probe” value in series [1] is “reduction in overall fluorescent signal”.

With “Ac-QMESA-4mc [KSp207, TMED7-derived fluorescent substrate Ac-QMESA-4mc]”, the Km at recombinant human RHBDL4 was 3.09 ± 1 µM.

Turning to “Mca-Arg-Pro-Pro-Gly-Phe-Ser-Ala-Phe-Lys (DNP)-OH (Mca-RPPGFSAFK(Dnp)-OH; SMILES COc1ccc2c(CC(=O)N[C@@H](CCCNC(=N)N)C(=O)N3CCC[C@H]3C(=O)N3CCC[C@H]3C(=O)NCC(=O)N[C@@H](Cc3ccccc3)C(=O)N[C@@H](CO)C(=O)N[C@@H](C)C(=O)N[C@@H](Cc3ccccc3)C(=O)N[C@@H](CCCCNc3ccc([N+](=O)[O-])cc3[N+](=O)[O-])C(=O)O)cc(=O)oc2c1) [IQ6, fluorescent internally quenched substrate mca-…(dnp)]”, the Km with recombinant human RHBDL4 was 10.7 ± 2 µM.

As for mca-AVFLSAVAG(dnp), the not cleaved entry in the series on RHBDL4 [3] is “did not observe any RHBDL4-catalyzed activity”.

On to “mca-FLVRGK(dnp) [IQ46, fluorescent internally quenched substrate mca-FLVRGK(dnp)]”, for which, at recombinant human RHBDL4, the Km came to 7.19 ± 1 µM.

Turning to “mca-FVTKGK(dnp) [IQ41, fluorescent internally quenched substrate mca-FVTKGK(dnp)]”, the Km at recombinant human RHBDL4 is 5.63 ± 2 µM.

Turning to mca-RPKPYAvWMK(dnp), the not cleaved result in the series on RHBDL4 [3] is on record as “did not observe any RHBDL4-catalyzed activity”.

As to mca-RPPGFSAFK(dnp), in the series with RHBDL4 [4], the cleaved bond result is listed as “Ala-Phe, 4 h; also recorded: Ser-Ala, 4 h”.

Regarding “peptidyl α-ketoamide compound 1a (Ac-VRHA-CONH-CH(Bn)-CH2OBn) (peptide)”, the IC50 of inhibition of RHBDL4 proteolysis of the fluorescent substrate IQ6 (in vitro FRET-based cleavage assay; 1 h pre-incubation, 2 h reaction) in series [5] was 2310 nM.

Regarding “peptidyl α-ketoamide compound 1b (Ac-VRHA-CONH-CH(Bn)-CH2OBn) (peptide)”, the IC50 of inhibition of RHBDL4 proteolysis of the fluorescent substrate IQ6 (in vitro FRET-based cleavage assay; 1 h pre-incubation, 2 h reaction) in series [5] worked out at 6100 nM.

B1: peptidyl α-ketoamide compound 4 (Ac-QMESA-CONH-CH(Bn)-CH2OBn) (peptide)
peptide: Ac-QMESA-{CONH‑CH(Bn)‑CH2OBn}
modifications: also: C-terminal α-ketoamide
For the molecule B1, the “IC50 of inhibition of RHBDL4 proteolysis of the fluorescent substrate IQ6 (in vitro FRET-based cleavage assay; 1 h pre-incubation, 2 h reaction)” value in series [6] came out at 85 nM.

B2: peptidyl α-ketoamide compound 3 (Ac-QMESA-CONH-(CH2)4-Ph) (peptide)
peptide: Ac-QMESA-{CONH‑(CH2)4‑Ph}
modifications: also: C-terminal α-ketoamide
As to B2, in series [6], the “IC50 of inhibition of RHBDL4 proteolysis of the fluorescent substrate IQ6 (in vitro FRET-based cleavage assay; 1 h pre-incubation, 2 h reaction)” value was found to be 54 nM.

B3: peptidyl α-ketoamide compound 2 (Ac-PGFSA-CONH-(CH2)4-Ph) (peptide)
peptide: Ac-PGFSA-{α‑ketoamide ‑CONH‑(CH2)4‑Ph}
For the molecule B3, the IC50 of inhibition of RHBDL4 activity (in vitro FRET-based cleavage assay) in series [5] was 3400 nM.
